Assay results reported in patent publication US20240058464A1 (Fortis Therapeutics, Inc., priority 2021, published 2024).

Tests used:
CD46 expression [1] = assay: CD46 expression by RNA-sequencing in unpaired pre-treatment and post-treatment tumor biopsies; type: in vivo, human; conditions: for CD46 expression Post: post-treatment biopsies
CD46 expression [2] = assay: CD46 expression by RNA-sequencing in paired tumor biopsies before and after therapy; conditions: for CD46 expression diff (post minus pre) / Percent Change in CD46 expression / CD46 expression, Post-Treatment Biopsy: paired biopsies; for CD46 expression, Post-Treatment Biopsy: RNA-seq log2-transformed counts;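 for all read-outs here: FFPE human tumor biopsies, exome-capture RNA-seq, reads aligned to GRCh37, counts normalized for GC content, length and depth, summed per gene, log2-transformed, samples paired before versus after therapy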
Procedure: Gene expression was determined by RNA-sequencing from formalin-fixed, paraffin-embedded (FFPE) tumor samples using an exome capture-based protocol. Briefly, total nucleic acid was extracted from FFPE solid tumor samples. The RNA sample was treated with DNAse and reverse transcribed. cDNA was captured with a custom probe set targeting the human exome. A library was prepared from the captured cDNA and sequenced on the Illumina platform. Sequence read were aligned to GRCh37 using Kallisto and normalized to quantify gene expression. Specifically, transcript counts were corrected for GC content and length using quantile normalization and adjusted for sequencing depth via a size factor method. Normalized counts in protein coding transcripts covered by the exome panel were then summed to obtain gene-level counts. Subsequent expression analyses were performed on log2-transformed counts.

[3] = Breast Cancer, Post minus Pre, unpaired biopsies, log2-transformed counts
[4] = Breast Cancer, post- vs pre-treatment unpaired biopsies
[5] = Breast Cancer, unpaired, RNA-seq log2-transformed normalized counts
[6] = Gastric Cancer, post minus pre, unpaired biopsies
[7] = Gastric Cancer, post vs pre, unpaired biopsies
[8] = Gastric Cancer, log2-transformed RNA-seq counts
[9] = Prostate Cancer, Post minus Pre, unpaired biopsies, log2-transformed counts
[10] = Prostate Cancer, post- vs pre-treatment unpaired biopsies
[11] = Prostate Cancer, unpaired, RNA-seq log2-transformed normalized counts

Question: Which CD46 expression diff (CD46 expression [1]; [3]) does the source give for `CC(=O)O[C@@]12CO[C@@H]1C[C@H](O)[C@@]1(C)C(=O)[C@H](O)C3=C(C)[C@@H](OC(=O)[C@H](O)[C@@H](NC(=O)OC(C)(C)C)c4ccccc4)C[C@@](O)([C@@H](OC(=O)c4ccccc4)[C@H]21)C3(C)C` [docetaxel] here?
Answer: 0.04

Question: And the “CD46 expression Percentage change” value (CD46 expression [1]; [4])?
Answer: 0.7%

Question: And the “CD46 expression Post” value (CD46 expression [1]; [5])?
Answer: 6.23

Question: What about the CD46 expression diff (CD46 expression [1]; [6]) of the same molecule?
Answer: −0.17

Question: And the “CD46 expression Percentage change” value (CD46 expression [1]; [7])?
Answer: −3.0%

Question: What about the “CD46 expression Post” value (CD46 expression [1]; [8]) of the same molecule?
Answer: 5.59

Question: And the CD46 expression diff (CD46 expression [1]; Non-Small Cell Lung Cancer, Post minus Pre, unpaired biopsies, log2-transformed counts)?
Answer: 0.02

Question: What about the “CD46 expression Percentage change” value (CD46 expression [1]; Non-Small Cell Lung Cancer, post- vs pre-treatment unpaired biopsies) of the same molecule?
Answer: 0.3%

Question: And the CD46 expression diff (CD46 expression [1]; Ovarian Cancer, Post minus Pre, unpaired biopsies, log2-transformed counts)?
Answer: 0.12

Question: And the “CD46 expression Percentage change” value (CD46 expression [1]; Ovarian Cancer, post- vs pre-treatment unpaired biopsies)?
Answer: 2.1%

Question: What about the “CD46 expression Post” value (CD46 expression [1]; Ovarian Cancer, unpaired, RNA-seq log2-transformed normalized counts) of the same molecule?
Answer: 5.88

Question: What about the CD46 expression diff (CD46 expression [1]; [9]) of the same molecule?
Answer: −0.14

Question: What about the “CD46 expression Percentage change” value (CD46 expression [1]; [10]) of the same molecule?
Answer: −2.2%

Question: What about the “CD46 expression Post” value (CD46 expression [1]; [11]) of the same molecule?
Answer: 6.02

Question: And the CD46 expression diff (CD46 expression [1]; Sarcoma, post minus pre, unpaired biopsies)?
Answer: −0.14

Question: What about the “CD46 expression Percentage change” value (CD46 expression [1]; Sarcoma, post vs pre, unpaired biopsies) of the same molecule?
Answer: −2.8%

Question: What about the “CD46 expression Post” value (CD46 expression [1]; Sarcoma, log2-transformed RNA-seq counts) of the same molecule?
Answer: 5.00

Question: What about the “CD46 expression diff (post minus pre)” value (CD46 expression [2]; Breast Cancer) of the same molecule?
Answer: 0.22

Question: And the “Percent Change in CD46 expression” value (CD46 expression [2]; Breast Cancer)?
Answer: 3.7%

Question: And the “CD46 expression, Post-Treatment Biopsy” value (CD46 expression [2]; Breast Cancer)?
Answer: 6.19

Question: And the “CD46 expression diff (post minus pre)” value (CD46 expression [2]; Prostate Cancer)?
Answer: −0.03

Question: What about the “Percent Change in CD46 expression” value (CD46 expression [2]; Prostate Cancer) of the same molecule?
Answer: −0.4%

Question: And the “CD46 expression, Post-Treatment Biopsy” value (CD46 expression [2]; Prostate Cancer)?
Answer: 5.76

Question: Which results are given for `COc1cccc2c1C(=O)c1c(O)c3c(c(O)c1C2=O)C[C@@](O)(C(=O)CO)C[C@@H]3O[C@H]1C[C@H](N)[C@H](O)[C@H](C)O1` [doxorubicin]?
Answer: CD46 expression diff (CD46 expression [1]; Bladder Cancer, post minus pre, unpaired biopsies): −0.27; CD46 expression Percentage change (CD46 expression [1]; Bladder Cancer, post vs pre, unpaired biopsies): −4.3%; CD46 expression Post (CD46 expression [1]; Bladder Cancer, log2-transformed RNA-seq counts): 5.88; CD46 expression diff (CD46 expression [1]; [3]): −0.02; CD46 expression Percentage change (CD46 expression [1]; [4]): −0.3%; CD46 expression diff (CD46 expression [1]; Sarcoma, Post minus Pre, unpaired biopsies, log2-transformed counts): 0.07; CD46 expression Percentage change (CD46 expression [1]; Sarcoma, post- vs pre-treatment unpaired biopsies): 1.3%; CD46 expression Post (CD46 expression [1]; Sarcoma, unpaired, RNA-seq log2-transformed normalized counts): 5.06; CD46 expression diff (post minus pre) (CD46 expression [2]; Breast Cancer): 0.12; Percent Change in CD46 expression (CD46 expression [2]; Breast Cancer): 1.9%; CD46 expression, Post-Treatment Biopsy (CD46 expression [2]; Breast Cancer): 6.27; CD46 expression diff (post minus pre) (CD46 expression [2]; Sarcoma): 0.20; Percent Change in CD46 expression (CD46 expression [2]; Sarcoma): 4.1%; CD46 expression, Post-Treatment Biopsy (CD46 expression [2]; Sarcoma): 5.19

Question: What does the source list for `CNC(=O)c1ccc(N2C(=S)N(c3ccc(C#N)c(C(F)(F)F)c3)C(=O)C2(C)C)cc1F` [enzalutamide]?
Answer: CD46 expression diff (CD46 expression [1]; [9]): 0.03; CD46 expression Percentage change (CD46 expression [1]; [10]): 0.4%; CD46 expression Post (CD46 expression [1]; [11]): 6.14; CD46 expression diff (post minus pre) (CD46 expression [2]; Prostate Cancer): 0.06; Percent Change in CD46 expression (CD46 expression [2]; Prostate Cancer): 1.1%; CD46 expression, Post-Treatment Biopsy (CD46 expression [2]; Prostate Cancer): 6.01

Question: For `C=C1C[C@@H]2CC[C@@]34C[C@H]5O[C@H]6[C@@H](O3)[C@H]3O[C@H](CC[C@@H]3O[C@H]6[C@H]5O4)CC(=O)C[C@@H]3[C@@H](OC)[C@@H](C[C@H](O)CN)O[C@H]3C[C@H]3O[C@@H](CC[C@@H]1O2)C[C@@H](C)C3=C` [eribulin], which CD46 expression diff (CD46 expression [1]; [3]) is on record?
Answer: 0.11

Question: And the “CD46 expression Percentage change” value (CD46 expression [1]; [4])?
Answer: 1.8%

Question: What about the “CD46 expression Post” value (CD46 expression [1]; [5]) of the same molecule?
Answer: 6.20

Question: And the “CD46 expression diff (post minus pre)” value (CD46 expression [2]; Breast Cancer)?
Answer: −0.54

Question: And the “Percent Change in CD46 expression” value (CD46 expression [2]; Breast Cancer)?
Answer: −8.4%

Question: What about the “CD46 expression, Post-Treatment Biopsy” value (CD46 expression [2]; Breast Cancer) of the same molecule?
Answer: 5.92

Question: What does the source list for `O=c1[nH]cc(F)c(=O)[nH]1` [fluorouracil]?
Answer: CD46 expression diff (CD46 expression [1]; Biliary Cancer, Post minus Pre, unpaired biopsies, log2-transformed counts): 0.00; CD46 expression Percentage change (CD46 expression [1]; Biliary Cancer, post- vs pre-treatment unpaired biopsies): 0.0%; CD46 expression Post (CD46 expression [1]; Biliary Cancer, unpaired, RNA-seq log2-transformed normalized counts): 5.92; CD46 expression diff (CD46 expression [1]; [3]): 0.06; CD46 expression Percentage change (CD46 expression [1]; [4]): 1.0%; CD46 expression Post (CD46 expression [1]; [5]): 6.18; CD46 expression diff (CD46 expression [1]; Colorectal Cancer, Post minus Pre, unpaired biopsies, log2-transformed counts): 0.06; CD46 expression Percentage change (CD46 expression [1]; Colorectal Cancer, post- vs pre-treatment unpaired biopsies): 0.9%; CD46 expression Post (CD46 expression [1]; Colorectal Cancer, unpaired, RNA-seq log2-transformed normalized counts): 6.44; CD46 expression diff (CD46 expression [1]; Esophageal Cancer, Post minus Pre, unpaired biopsies, log2-transformed counts): −0.06; CD46 expression Percentage change (CD46 expression [1]; Esophageal Cancer, post- vs pre-treatment unpaired biopsies): −1.0%; CD46 expression Post (CD46 expression [1]; Esophageal Cancer, unpaired, RNA-seq log2-transformed normalized counts): 5.83; CD46 expression diff (CD46 expression [1]; [6]): −0.14; CD46 expression Percentage change (CD46 expression [1]; [7]): −2.4%; CD46 expression Post (CD46 expression [1]; [8]): 5.65; CD46 expression diff (CD46 expression [1]; Head and Neck Squamous Cell Carcinoma, Post minus Pre, unpaired biopsies, log2-transformed counts): 0.03; CD46 expression Percentage change (CD46 expression [1]; Head and Neck Squamous Cell Carcinoma, post- vs pre-treatment unpaired biopsies): 0.6%; CD46 expression Post (CD46 expression [1]; Head and Neck Squamous Cell Carcinoma, unpaired, RNA-seq log2-transformed normalized counts): 5.63; CD46 expression diff (CD46 expression [1]; Pancreatic Cancer, post minus pre, unpaired biopsies): −0.15; CD46 expression Percentage change (CD46 expression [1]; Pancreatic Cancer, post vs pre, unpaired biopsies): −2.5%; CD46 expression Post (CD46 expression [1]; Pancreatic Cancer, log2-transformed RNA-seq counts): 5.76; CD46 expression diff (post minus pre) (CD46 expression [2]; Colorectal Cancer): −0.05; Percent Change in CD46 expression (CD46 expression [2]; Colorectal Cancer): −0.8%; CD46 expression, Post-Treatment Biopsy (CD46 expression [2]; Colorectal Cancer): 6.27; CD46 expression diff (post minus pre) (CD46 expression [2]; Esophageal Cancer): −0.31; Percent Change in CD46 expression (CD46 expression [2]; Esophageal Cancer): −5.2%; CD46 expression, Post-Treatment Biopsy (CD46 expression [2]; Esophageal Cancer): 5.60; CD46 expression diff (post minus pre) (CD46 expression [2]; Gastric Cancer): −0.09; Percent Change in CD46 expression (CD46 expression [2]; Gastric Cancer): −1.5%; CD46 expression, Post-Treatment Biopsy (CD46 expression [2]; Gastric Cancer): 5.66; CD46 expression diff (post minus pre) (CD46 expression [2]; Pancreatic Cancer): 0.09; Percent Change in CD46 expression (CD46 expression [2]; Pancreatic Cancer): 1.5%; CD46 expression, Post-Treatment Biopsy (CD46 expression [2]; Pancreatic Cancer): 5.92; subjects whose paired biopsies showed decreased CD46 expression (CD46 expression [2]; esophageal cancer, 10 of 13 subjects, FIG. 4): 77%

Question: Which CD46 expression diff (CD46 expression [1]; [3]) does the source give for `C[C@]12CC[C@@H]3c4ccc(O)cc4C[C@@H](CCCCCCCCC[S+]([O-])CCCC(F)(F)C(F)(F)F)[C@H]3[C@@H]1CC[C@@H]2O` (some centres unmarked) [fulvestrant] here?
Answer: −0.08

Question: And the “CD46 expression Percentage change” value (CD46 expression [1]; [4])?
Answer: −1.2%

Question: What about the “CD46 expression Post” value (CD46 expression [1]; [5]) of the same molecule?
Answer: 6.41

Question: What about the “CD46 expression diff (post minus pre)” value (CD46 expression [2]; Breast Cancer) of the same molecule?
Answer: −0.13

Question: What about the “Percent Change in CD46 expression” value (CD46 expression [2]; Breast Cancer) of the same molecule?
Answer: −2.1%

Question: What about the “CD46 expression, Post-Treatment Biopsy” value (CD46 expression [2]; Breast Cancer) of the same molecule?
Answer: 6.44
